Experiment in all cases: Antibacterial activity, minimum inhibition concentration (method of The Chemotherapy Association, Japan)
What all share (type): cell-based

One test relates to Proteus vulgaris OX-19. The note with it: Proteus vulgaris, OX19, strain H: Proteus vulgaris OX-19; read-out: minimum inhibition concentration. An excerpt: (§1) The abbreviations A to P will be used in the following Tables 2 to 8.
(§2) Test results are shown in terms of the minimum inhibition concentration (µg/mℓ.) in the following Tables 2 to 8.

The test system of the next test is Proteus rettgeri NIH-96. As to conditions: Providencia rettgeri, NIH96, strain I: Proteus rettgeri NIH-96; read-out: minimum inhibition concentration.
Description: as §1, §2

The subject of another test is Escherichia coli NIHJC-2. The note with it: Escherichia coli, NIHJC2, strain L: Escherichia coli NIHJC-2; read-out: minimum inhibition concentration. As to the method:
(§3) Antibacterial activities of the compounds according to this invention, which had been prepared in the preceding Examples, were measured according to the method prescribed by The Committee of Amendment of "The method for measurement of the minimum inhibition concentration", The Chemotherapy Association, Japan (See Chemotherapy, Vol. 22, No. 6, pp. 1126 - 1128 (1974) and Vol. 29, No. 1, pp. 76 - 79 (1981)).
as §1, §2

The test system of test [1] is Pseudomonas aeruginosa NCTC-10490. As to conditions: Pseudomonas aeruginosa, NCTC10490, strain M: Pseudomonas aeruginosa NCTC-10490; read-out: minimum inhibition concentration. As to the method: as §3, §1, §2
For test [2], the system named is Salmonella typhimurium 3173. As to conditions: Salmonella enterica, TYPHIMURIUM, strain D: Salmonella typhimurium 3173; read-out: minimum inhibition concentration. As to the method: as §3, §1, §2
Test [3] relates to Staphylococcus aureus 6538-P. As to conditions: strain A: Staphylococcus aureus 6538-P; read-out: minimum inhibition concentration. On the procedure: as §3, §1, §2
In a further test the test system is Serratia marcescens 1023. As to conditions: Serratia marcescens, 1023, strain E: Serratia marcescens 1023; read-out: minimum inhibition concentration. On the procedure: as §3, §1, §2
The subject of the next test is Escherichia coli NIHJ. The note with it: Escherichia coli, strain K: Escherichia coli NIHJ; read-out: minimum inhibition concentration. On the procedure: as §3, §1, §2
Test [4] concerns Proteus mirabillis B-30-2 IFO-3849. As to conditions: strain G: Proteus mirabillis B-30-2 IFO-3849; read-out: minimum inhibition concentration. As to the method:
as §3, §1, §2

Test [5] has as its system Serratia marcescens IFO-3736. The note with it: Serratia marcescens, IFO3736, strain F: Serratia marcescens IFO-3736; read-out: minimum inhibition concentration. As to the method:
as §3, §1, §2

For another test, the system named is Proteus morgani Kono. The note with it: strain J: Proteus morgani Kono; read-out: minimum inhibition concentration. On the procedure: as §3, §1, §2
The subject of test [6] is Enterobactor cloacae NCTC-9394. As to conditions: strain N: Enterobactor cloacae NCTC-9394; read-out: minimum inhibition concentration. As to the method: as §3, §1, §2
Test [7] deals with Citrobactor freundii NIH-10018 -68. As to conditions: strain O: Citrobactor freundii NIH-10018 -68; read-out: minimum inhibition concentration. On the procedure:
as §3, §1, §2

A further test deals with Klebsiella pneumoniae. The note with it: Klebsiella pneumoniae, strain C: Klebsiella pneumoniae; read-out: minimum inhibition concentration. On the procedure:
as §3, §1, §2

The test system of test [8] is Bacillus subtilis ATCC 6633. As to conditions: for MIC: Bacillus subtilis, ATCC6633, strain B: Bacillus subtilis ATCC 6633, read-out: minimum inhibition concentration. On the procedure: as §3, §1, §2

The structures appear in SMILES notation. ≈ marks a conversion by molar mass, not a printed value. Where a name gives a salt, the structure may show the parent alone.

This is an account of results in EP0048954A2, “Beta-lactam compounds, process for the preparation thereof and intermediate products for the preparation thereof” (SAGAMI CHEMICAL RESEARCH CENTER, priority 1980, dated 1982).

Turning to `CC1=C(C(=O)O)N2C(=O)C(NC(=O)C(=CCl)c3csc(N)n3)C2SC1` (single isomer, unassigned) [Compound 23, 7-[2-chlromethylene-2-(2-aminothiazol-4-yl)acetamido]-desacetoxycephelosporanic acid sodium salt], the MIC in the test with Proteus vulgaris OX-19 was 12.5 µg/mL; with Proteus rettgeri NIH-96 it was 0.39 µg/mL; in the test on Escherichia coli NIHJC-2 it was 100 µg/mL; in test [1], over 100 µg/mL; in [2], 50 µg/mL; in test [3], 3.12 µg/mL. In addition, the MIC in the test on Serratia marcescens 1023 was 100 µg/mL; in the test with Escherichia coli NIHJ it was 6.25 µg/mL; in test [4] it was 25 µg/mL; in [5] it was over 100 µg/mL; in the test with Proteus morgani Kono it was over 100 µg/mL; in test [6] it was 12.5 µg/mL. Also, the results for the MIC (in test [7]; in the test on Klebsiella pneumoniae; in [8]) were 100 µg/mL, 50 µg/mL and 50 µg/mL, respectively.

For `CC(=O)OCC1=C(C(=O)O)N2C(=O)C(NC(=O)C(=C(Cl)Cl)c3ccc(NC(=O)OC(C)(C)C)cc3)C2SC1` (stereo not drawn) [4-(1), 7-[2-dichloromethylene-2-(4-tert-butoxycarbonyl-aminophenyl)acetamido]-3-acetoxymethyl-3-cephem-4-carboxylic acid], the MIC was over 100 µg/mL in the test with Proteus vulgaris OX-19; 6.25 µg/mL (≈ 10.7 µM) with Proteus rettgeri NIH-96; over 100 µg/mL with Escherichia coli NIHJC-2; 50 µg/mL (≈ 85.3 µM) in test [1]; over 100 µg/mL in test [2]; 0.39 µg/mL (≈ 0.665 µM) in test [3]. Besides, the MIC with Serratia marcescens 1023 was 6.25 µg/mL (≈ 10.7 µM); with Escherichia coli NIHJ, 6.25 µg/mL (≈ 10.7 µM); in [4] it was over 100 µg/mL; in test [5] it was over 100 µg/mL; in the test with Proteus morgani Kono it was over 100 µg/mL; in test [6] it was over 100 µg/mL. Moreover, the MIC is over 100 µg/mL in test [7], over 100 µg/mL in the test with Klebsiella pneumoniae and 6.25 µg/mL (≈ 10.7 µM) in test [8].

Consider `CC(=O)OCC1=C(C(=O)O)N2C(=O)C(NC(=O)C(=C(Cl)Cl)c3ccc(N)cc3)[C@H]2SC1` (stereo partly drawn) [4-(2), 7-[2-dichloromethylene-2-(4-aminophenyl)acetamido]-3-acetoxymethyl-3-cephem-4-carboxylic acid], for which the MIC in the test with Proteus vulgaris OX-19 was 6.25 µg/mL (≈ 12.9 µM); in the test with Proteus rettgeri NIH-96 it was 0.2 µg/mL (≈ 0.411 µM); in the test with Escherichia coli NIHJC-2 it was over 100 µg/mL; in test [1], 12.5 µg/mL (≈ 25.7 µM); in test [2], 100 µg/mL (≈ 206 µM); in [3] it was 0.39 µg/mL (≈ 0.802 µM). The MIC with Serratia marcescens 1023 was 3.12 µg/mL (≈ 6.43 µM); in the test with Escherichia coli NIHJ it was 0.39 µg/mL (≈ 0.802 µM); in [4], over 100 µg/mL; in test [5] it was over 100 µg/mL; with Proteus morgani Kono, over 100 µg/mL; in [6], over 100 µg/mL. Further, the MIC in test [7] was over 100 µg/mL; with Klebsiella pneumoniae it was over 100 µg/mL; in test [8] it was 1.56 µg/mL (≈ 3.21 µM).

Consider `CC(=O)OCC1=C(C(=O)O)N2C(=O)C(NC(=O)C(=C(Cl)Cl)c3csc(NC(=O)OC(C)(C)C)n3)C2SC1` (stereo not drawn) [5-(1), 7-[2-dichloromethylene-2-(2-tert-butoxycarbonyl-aminothiazol-4-yl)acetamido]-3-acetoxymethyl-3-cephem-4-carboxylic acid], for which the MIC with Proteus vulgaris OX-19 was 0.39 µg/mL (≈ 0.657 µM); with Proteus rettgeri NIH-96, under 0.025 µg/mL; in the test with Escherichia coli NIHJC-2, 25 µg/mL (≈ 42.1 µM); in [1], 12.5 µg/mL (≈ 21.1 µM); in test [2], 12.5 µg/mL (≈ 21.1 µM); in [3], 1.56 µg/mL (≈ 2.63 µM). Further, the MIC amounted to 25 µg/mL (≈ 42.1 µM) in the test on Serratia marcescens 1023; 0.1 µg/mL (≈ 0.169 µM) with Escherichia coli NIHJ; 12.5 µg/mL (≈ 21.1 µM) in test [4]; 12.5 µg/mL (≈ 21.1 µM) in test [5]; 12.5 µg/mL (≈ 21.1 µM) in the test with Proteus morgani Kono; 12.5 µg/mL (≈ 21.1 µM) in test [6]. For the same compound, the MIC is 25 µg/mL (≈ 42.1 µM) in test [7], 12.5 µg/mL (≈ 21.1 µM) in the test with Klebsiella pneumoniae and 25 µg/mL (≈ 42.1 µM) in test [8].

Take `CC(=O)OCC1=C(C(=O)O)N2C(=O)C(NC(=O)C(=C(Cl)Cl)c3csc(N)n3)[C@H]2SC1` (stereo partly drawn) [5-(2), 7-[2-dichloromethylene-2-(2-aminothiazol-4-yl)acetamido]-3-acetoxymethyl-3-cephem-4-carboxylic acid]: the MIC was 0.2 µg/mL (≈ 0.405 µM) in the test with Proteus vulgaris OX-19; under 0.025 µg/mL with Proteus rettgeri NIH-96; 12.5 µg/mL (≈ 25.3 µM) in the test on Escherichia coli NIHJC-2; 6.25 µg/mL (≈ 12.7 µM) in test [1]; 6.25 µg/mL (≈ 12.7 µM) in test [2]; 1.56 µg/mL (≈ 3.16 µM) in test [3]. For the same compound, the MIC in the test with Serratia marcescens 1023 was 12.5 µg/mL (≈ 25.3 µM); in the test on Escherichia coli NIHJ, 0.1 µg/mL (≈ 0.203 µM); in test [4], 12.5 µg/mL (≈ 25.3 µM); in test [5], 50 µg/mL (≈ 101 µM); in the test on Proteus morgani Kono, 25 µg/mL (≈ 50.7 µM); in test [6] it was 1.56 µg/mL (≈ 3.16 µM). The MIC is 6.25 µg/mL (≈ 12.7 µM) in test [7], 6.25 µg/mL (≈ 12.7 µM) in the test on Klebsiella pneumoniae and 12.5 µg/mL (≈ 25.3 µM) in test [8].

For the compound `Cn1nnnc1SCC1=C(C(=O)O)N2C(=O)C(NC(=O)C(=C(Cl)Cl)c3csc(N)n3)C2SC1` (stereo not drawn) [6-(2), 7-[2-dichloromethylene-2-(2-aminothiazol-4-yl)-acetamido]-3-(l-methyl-lH-tetrazol-5-yl)thiomethyl-3-cephem-4-carboxylic acid], the MIC in the test on Proteus vulgaris OX-19 is 0.1 µg/mL (≈ 0.182 µM); in the test on Proteus rettgeri NIH-96 it was under 0.025 µg/mL; with Escherichia coli NIHJC-2, 12.5 µg/mL (≈ 22.8 µM); in test [1], 3.12 µg/mL (≈ 5.69 µM); in [2], 6.25 µg/mL (≈ 11.4 µM); in [3], 0.78 µg/mL (≈ 1.42 µM). Besides, the MIC is 12.5 µg/mL (≈ 22.8 µM) in the test on Serratia marcescens 1023; under 0.025 µg/mL with Escherichia coli NIHJ; 12.5 µg/mL (≈ 22.8 µM) in [4]; 25 µg/mL (≈ 45.5 µM) in test [5]; 6.25 µg/mL (≈ 11.4 µM) in the test with Proteus morgani Kono; 1.56 µg/mL (≈ 2.84 µM) in [6]. Moreover, the MIC in test [7] was determined as 6.25 µg/mL (≈ 11.4 µM); in the test with Klebsiella pneumoniae, 12.5 µg/mL (≈ 22.8 µM). The minimum inhibition concentration in test [8] (strain B: Bacillus subtilis ATCC 6633) amounted to 6.25 µg/mL (≈ 11.4 µM).

For `Cn1nnnc1SCC1=C(C(=O)O)N2C(=O)C(NC(=O)C(=CCl)c3csc(N)n3)C2SC1` (stereo not drawn) [11-(3), 7-[2-chloromethylene-2-(2-aminothiazol-4-yl)-acetamido]-3-(1-methyl-lH-tetrazol-5-yl)thiomethyl-3-cephem-4-carboxylic acid sodium salt], the MIC was 0.025 µg/mL with Proteus vulgaris OX-19; under 0.00625 µg/mL with Proteus rettgeri NIH-96; 0.78 µg/mL with Escherichia coli NIHJC-2; 1.56 µg/mL in test [1]; 0.78 µg/mL in test [2]; 0.39 µg/mL in test [3]. Also, the MIC was 6.25 µg/mL in the test with Serratia marcescens 1023; under 0.00625 µg/mL in the test with Escherichia coli NIHJ; 0.39 µg/mL in test [4]; 0.78 µg/mL in [5]; 0.2 µg/mL with Proteus morgani Kono; 0.2 µg/mL in test [6]. Further, the MIC was determined as 0.78 µg/mL in test [7], 0.78 µg/mL in the test on Klebsiella pneumoniae and 3.12 µg/mL in test [8].
